Assay results reported in article PMC7031696 (Cell chemical biology, 2019).

Tested on: 3D7-MR4 trophozoite parasite-infected RBCs
Experiment: Metabolomic profiling (hydrophilic metabolite changes, UHPLC-MS)
Type: cell-based, Plasmodium falciparum

Ferroquine [reference compound]
Log2(fold changes) adenosine (metabolite adenosine, log2 fold change): 0.0000 | Log2(fold changes) alanine/sarcosine (metabolite alanine/sarcosine, log2 fold change): 0.0137 | Log2(fold changes) anthranilate (metabolite anthranilate, log2 fold change): 0.0000 | Log2(fold changes) arginine (metabolite arginine, log2 fold change): 0.0962 | Log2(fold changes) asparagine (metabolite asparagine, log2 fold change): 0.2455 | Log2(fold changes) aspartate (metabolite aspartate, log2 fold change): 0.0829 | Log2(fold changes) biotin (metabolite biotin, log2 fold change): 0.0000 | Log2(fold changes) cCMP (metabolite cCMP, log2 fold change): 0.0000 | Log2(fold changes) cGMP (metabolite cGMP, log2 fold change): 0.0000 | Log2(fold changes) carnitine (metabolite carnitine, log2 fold change): 0.0000 | Log2(fold changes) citrate/isocitrate (metabolite citrate/isocitrate, log2 fold change): 0.0063 | Log2(fold change) of coenzyme A (metabolite coenzyme A): 0.9119 | Log2(fold change) of cyclic-AMP (metabolite cyclic-AMP): 0.1031 | Log2(fold change) of cytidine (metabolite cytidine): 0.1024 | Log2(fold change) of dAMP (metabolite dAMP): -0.3497 | Log2(fold change) of dATP (metabolite dATP): 0.0366 | Log2(fold change) of dCDP (metabolite dCDP): -0.2652 | Log2(fold change) of dCMP (metabolite dCMP): -0.1471 | Log2(fold change) of dCTP (metabolite dCTP): 0.0304 | Log2(fold change) of dGDP/ADP (metabolite dGDP/ADP): -0.1961 | Log2(fold change) of dGMP/AMP (metabolite dGMP/AMP): -0.3182 | Log2(fold change) of dGTP/ATP (metabolite dGTP/ATP): 0.0666 | Log2(fold change) of dTDP (metabolite dTDP): -0.3263 | Log2(fold change) of dTMP (metabolite dTMP): -0.4999 | Log2(fold change) of dTTP (metabolite dTTP): 0.0866 | Log2(fold change) of dUMP (metabolite dUMP): 0.0000 | Log2(fold change) of dUTP (metabolite dUTP): 0.0000 | Log2(fold change) of deoxyguanosine (metabolite deoxyguanosine): 0.0000 | Log2(fold change) of deoxyinosine (metabolite deoxyinosine): 0.0000 | Log2(fold change) of deoxyribose-phosphate (metabolite deoxyribose-phosphate): 0.0000 | Log2(fold change) of deoxyuridine (metabolite deoxyuridine): 0.0000 | Log2(fold change) of dihydroorotate (metabolite dihydroorotate): 0.1627 | Log2(fold change) of folate (metabolite folate): 0.1440 | Log2(fold change) of fructose-1-6-bisphosphate (metabolite fructose-1-6-bisphosphate): 0.3162 | Log2(fold change) of fructose-6-phosphate (metabolite fructose-6-phosphate): 0.3514 | Log2(fold change) of fumarate (metabolite fumarate): -0.0660 | Log2(fold change) of glucono-lactone (metabolite glucono-lactone): 0.0470 | Log2(fold change) of glucose-1/6-phosphate (metabolite glucose-1/6-phosphate): 0.0000 | Log2(fold change) of glutamate (metabolite glutamate): 0.0411 | Log2(fold change) of glutamine (metabolite glutamine): 0.1003 | Log2(fold change) of glutathione (metabolite glutathione): 0.0000 | Log2(fold change) glutathione disulfide (metabolite glutathione disulfide): -0.3466 | Log2(fold change) glycerate (metabolite glycerate): 0.0000 | Log2(fold change) guanine (metabolite guanine): 0.0000 | Log2(fold change) guanosine (metabolite guanosine): -0.2330 | Log2(fold change) histidine (metabolite histidine): 0.0507 | Log2(fold change) homocysteic acid (metabolite homocysteic acid): 0.0000 | Log2(fold change) hydroxyphenylpyruvate (metabolite hydroxyphenylpyruvate): 0.0000 | Log2(fold change) hydroxyproline/Aminolevulinate (metabolite hydroxyproline/Aminolevulinate): 0.0365 | Log2(fold change) hypoxanthine (metabolite hypoxanthine): 0.0000 | Log2(fold change) indole (metabolite indole): 0.0000 | Log2(fold change) inosine (metabolite inosine): 0.4396 | Log2(fold change) isoleucine (metabolite isoleucine): 0.0740 | Log2(fold change) lactate (metabolite lactate): 0.1682 | Log2(fold change) leucine (metabolite leucine): 0.0991 | Log2(fold change) lysine (metabolite lysine): 0.0854 | Log2(fold change) malate (metabolite malate): -0.0032 | Log2(fold change) maleic acid (metabolite maleic acid): 0.0142 | Log2(fold change) methionine (metabolite methionine): 0.2846 | Log2(fold change) myo-inositol (metabolite myo-inositol): 0.0000 | Log2(fold change) nicotinamide mononucleotide (metabolite nicotinamide mononucleotide): -0.0133 | Log2(fold change) nicotinate (metabolite nicotinate): 0.1646 | Log2(fold change) ornithine (metabolite ornithine): 0.0000 | Log2(fold change) orotate (metabolite orotate): 0.0201 | Log2(fold change) orotidine-5'-phosphate (metabolite orotidine-5'-phosphate): 0.1401 | Log2(fold change) oxaloacetate (metabolite oxaloacetate): 0.0000 | Log2(fold change) p-aminobenzoate (metabolite p-aminobenzoate): 0.0000 | Log2(fold change) p-hydroxybenzoate (metabolite p-hydroxybenzoate): 0.0000 | Log2(fold change) pantothenate (metabolite pantothenate): 0.1559 | Log2(fold change) phenylalanine (metabolite phenylalanine): 0.0217 | Log2(fold change) phenylpyruvate (metabolite phenylpyruvate): 0.0000 | Log2(fold change) phosphoenolpyruvate (metabolite phosphoenolpyruvate): 0.1068 | Log2(fold change) prephenate (metabolite prephenate): 0.0000 | Log2(fold change) proline (metabolite proline): 0.0000 | Log2(fold change) pyridoxine (metabolite pyridoxine): 0.3553 | Log2(fold change) pyruvate (metabolite pyruvate): -0.3114 | Log2(fold change) riboflavin (metabolite riboflavin): 0.0000 | Log2(fold change) ribose (metabolite ribose): 0.0000 | Log2(fold change) ribose-phosphate (metabolite ribose-phosphate): 0.0000 | Log2(fold change) ribulose-5-phosphate (metabolite ribulose-5-phosphate): 0.1038 | Log2(fold change) serine (metabolite serine): 0.2426 | Log2(fold change) sn-glycerol-3-phosphate (metabolite sn-glycerol-3-phosphate): 0.0527 | Log2(fold change) succinate/Methylmalonic acid (metabolite succinate/Methylmalonic acid): -0.0206 | Log2(fold change) succinyl-CoA/methylmalonyl-CoA (metabolite succinyl-CoA/methylmalonyl-CoA): 0.0000 | Log2(fold change) taurine (metabolite taurine): 0.3032 | Log2(fold change) thiamine (metabolite thiamine): 0.1205 | Log2(fold change) threonine/homoserine (metabolite threonine/homoserine): 0.0762 | Log2(fold change) thymidine (metabolite thymidine): 0.0000 | Log2(fold changes) thymine (metabolite thymine, log2 fold change): 0.0000 | Log2(fold changes) trehalose-6-Phosphate (metabolite trehalose-6-Phosphate, log2 fold change): 0.0000 | Log2(fold changes) tryptophan (metabolite tryptophan, log2 fold change): -0.1782 | Log2(fold changes) tyrosine (metabolite tyrosine, log2 fold change): 0.0328 | Log2(fold changes) uridine (metabolite uridine, log2 fold change): 0.0000 | Log2(fold changes) valine (metabolite valine, log2 fold change): 0.0750 | Log2(fold changes) xanthine (metabolite xanthine, log2 fold change): 0.0000 | Log2(fold changes) xanthosine-5-phosphate (metabolite xanthosine-5-phosphate, log2 fold change): 0.2017 | Log2(fold changes) xanthosine (metabolite xanthosine, log2 fold change): -0.1521 | Log2(fold changes) xylose (metabolite xylose, log2 fold change): 0.0000
